Biological target: T1, hematopoietic progenitor kinase 1 (HPK1) (Homo sapiens, UniProt Q92918)
T1 construct: gene MAP4K1
Test: radiometric [γ-33P]-ATP kinase assay (Eurofins KinaseProfiler), recombinant human HPK1, MBP substrate
Assay type: biochemical

T1 sequence (Q92918 whole entry): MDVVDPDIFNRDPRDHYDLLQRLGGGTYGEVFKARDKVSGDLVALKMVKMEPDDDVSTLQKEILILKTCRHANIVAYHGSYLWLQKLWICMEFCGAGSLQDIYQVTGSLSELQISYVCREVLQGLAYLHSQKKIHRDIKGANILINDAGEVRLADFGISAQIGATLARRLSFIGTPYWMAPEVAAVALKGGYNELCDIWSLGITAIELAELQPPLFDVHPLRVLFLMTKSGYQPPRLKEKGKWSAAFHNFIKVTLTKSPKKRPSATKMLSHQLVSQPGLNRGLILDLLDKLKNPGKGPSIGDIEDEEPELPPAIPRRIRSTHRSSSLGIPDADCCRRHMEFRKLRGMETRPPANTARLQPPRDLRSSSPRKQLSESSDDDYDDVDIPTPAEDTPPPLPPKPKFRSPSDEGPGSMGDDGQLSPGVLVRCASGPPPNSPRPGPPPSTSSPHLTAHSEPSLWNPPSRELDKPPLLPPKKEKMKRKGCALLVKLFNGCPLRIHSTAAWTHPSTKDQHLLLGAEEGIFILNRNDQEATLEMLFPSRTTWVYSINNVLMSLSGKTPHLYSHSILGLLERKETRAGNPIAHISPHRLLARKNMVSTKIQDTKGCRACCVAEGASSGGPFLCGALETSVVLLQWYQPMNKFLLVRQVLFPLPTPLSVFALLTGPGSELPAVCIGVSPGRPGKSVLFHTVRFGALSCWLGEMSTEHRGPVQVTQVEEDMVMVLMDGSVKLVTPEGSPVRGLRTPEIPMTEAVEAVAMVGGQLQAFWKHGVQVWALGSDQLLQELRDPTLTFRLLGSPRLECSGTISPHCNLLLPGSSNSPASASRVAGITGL

CC(C)S(=O)(=O)c1ccccc1Nc1nc(Nc2ccc3c(c2)C(C)(C)OC3=O)ncc1Cl [KHK-6]
IC50: 0.02 µM
